Measurements: paper PMC6576746, “Rational discovery of dual-indication multi-target PDE/Kinase inhibitor for precision anti-cancer therapy using structural systems pharmacology” (PLoS Computational Biology, 2019)

How the values were obtained:
Assay in all cases: cells
Parameters in all cases: species or system panel of human cancer cell lines; Eurofins OncoPanel proliferation; nuclei count by high-content fluorescence imaging, 10-point dose response
5637 = details: 72 h, cell count, 3 days
Summary of the method: (§1)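 Ten half-log concentrations from 100 μM (0.1% DMSO max) applied one day post-seeding, 3-day exposure at 37°C; untreated time-zero plate for GI50. Readout is nuclear cell count by automated fluorescence imaging, giving EC50, IC50, GI50 and 0–10 activity area.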

A427 = details: Homo sapiens, A-427, 72 h, cell count, 3 days
Summary of the method: as §1

AGS = details: Homo sapiens, AGS, 72 h, cell count, 3 days
Summary of the method: as §1

BC-1 = details: Homo sapiens, BC1, 72 h, cell count, 3 days
Summary of the method: as §1

BPH1 = details: Homo sapiens, BPH-1, 72 h, cell count, 3 days
Summary of the method: as §1

BV-173 = details: Homo sapiens, BV-173, 72 h, cell count, 3 days
Summary of the method: as §1

CRO-AP2 = details: Homo sapiens, CRO-AP2, 72 h, cell count, 3 days
Summary of the method: as §1

Cal 27 = details: Homo sapiens, CAL-27, 72 h, cell count, 3 days
Summary of the method: as §1

DBTRG-05MG = details: Homo sapiens, DBTRG-05MG, 72 h, cell count, 3 days
Summary of the method: as §1

EB2 = details: Homo sapiens, EB2, 72 h, cell count, 3 days
Summary of the method: as §1

HOS = details: Homo sapiens, HOS, 72 h, cell count, 3 days
Summary of the method: as §1

HT1376 = details: Homo sapiens, HT-1376, 72 h, cell count, 3 days
Summary of the method: as §1

RPMI 8226 = details: Homo sapiens, RPMI-8226, 72 h, cell count, 3 days
Summary of the method: as §1

SW403 = details: Homo sapiens, SW-403, 72 h, cell count, 3 days
Summary of the method: as §1

[1] = 50% of maximum possible response

C[C@@H]1CC(=O)NN=C1c1ccc(NN=C(C#N)C#N)cc1 [levosimendan]
IC50 5637; [1]: 64.7 µM | GI50 (5637; corrected for time zero): 53.5 µM | EC50 (5637; curve inflection point): 64.7 µM | IC50 (A427; [1]): 23.6 µM | GI50 (A427; corrected for time zero): 18.4 µM | EC50 (A427; curve inflection point): 23.6 µM | IC50 (AGS; [1]): 4.21 µM | GI50 (AGS; corrected for time zero): 3.91 µM | EC50 (AGS; curve inflection point): 3.93 µM | IC50 (BC-1; [1]): 18.9 µM | GI50 (BC-1; corrected for time zero): 14.6 µM | EC50 (BC-1; curve inflection point): 18.9 µM | IC50 (BPH1; [1]): 8.33 µM | GI50 (BPH1; corrected for time zero): 7.33 µM | EC50 (BPH1; curve inflection point): 7.05 µM | IC50 (BV-173; [1]): 12 µM | GI50 (BV-173; corrected for time zero): 10.1 µM | EC50 (BV-173; curve inflection point): 12 µM | IC50 (CRO-AP2; [1]): 10.3 µM | GI50 (CRO-AP2; corrected for time zero): 8.29 µM | EC50 (CRO-AP2; curve inflection point): 9.97 µM | IC50 (Cal 27; [1]): 14.9 µM | GI50 (Cal 27; corrected for time zero): 13.2 µM | EC50 (Cal 27; curve inflection point): 14.5 µM | IC50 (DBTRG-05MG; [1]): 75.6 µM | GI50 (DBTRG-05MG; corrected for time zero): 41.4 µM | EC50 (DBTRG-05MG; curve inflection point): 75.6 µM | IC50 (EB2; [1]): 34.4 µM | GI50 (EB2; corrected for time zero): 24.5 µM | EC50 (EB2; curve inflection point): 34.4 µM | IC50 (HOS; [1]): 11.4 µM | GI50 (HOS; corrected for time zero): 9.54 µM | EC50 (HOS; curve inflection point): 11.4 µM | IC50 (HT1376; [1]): > 100 µM | GI50 (HT1376; corrected for time zero): > 100 µM | EC50 (HT1376; curve inflection point): > 100 µM | IC50 (RPMI 8226; [1]): 25.1 µM | GI50 (RPMI 8226; corrected for time zero): 17.1 µM | EC50 (RPMI 8226; curve inflection point): 25.1 µM | IC50 (SW403; [1]): 33.2 µM | GI50 (SW403; corrected for time zero): 14.4 µM | EC50 (SW403; curve inflection point): 28.7 µM
